# Earlier results in patent publication US11571411B2, “Use of a bisamide derivative of malonic acid for treating allergic and other diseases in humans and animals” (PHARMENTERPRISES ALLERGY LLC, priority 2018, dated 2023).
# Experiments:
# [1] = in vivo; cited from earlier work
# H3 receptor = target: T1, H3 receptor (Homo sapiens, UniProt Q9Y5N1); settings: humans, topical administration; cited from earlier work
# T1 construct: host or cells: human volunteers (nasal mucosa, in vivo)
# T1 sequence (Q9Y5N1 whole entry): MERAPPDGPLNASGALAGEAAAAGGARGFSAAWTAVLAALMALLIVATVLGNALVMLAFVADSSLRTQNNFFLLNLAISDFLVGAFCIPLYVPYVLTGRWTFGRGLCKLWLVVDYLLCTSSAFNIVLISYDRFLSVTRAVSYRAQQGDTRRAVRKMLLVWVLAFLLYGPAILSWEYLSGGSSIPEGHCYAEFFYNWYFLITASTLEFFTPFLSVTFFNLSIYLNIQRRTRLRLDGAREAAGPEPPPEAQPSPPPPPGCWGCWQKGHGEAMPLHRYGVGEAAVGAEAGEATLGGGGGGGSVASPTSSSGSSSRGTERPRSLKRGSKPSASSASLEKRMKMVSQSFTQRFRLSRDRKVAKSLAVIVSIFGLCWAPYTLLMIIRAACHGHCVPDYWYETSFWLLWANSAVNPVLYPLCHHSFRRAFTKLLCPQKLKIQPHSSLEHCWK
smiles,measurement,setting,value
S=C(NC1CCCCC1)N1CCC(c2cnc[nH]2)CC1 [Thioperamide],crossing of the blood-brain barrier,[1],cross the blood-brain barrier
same,effect on nasal blockage induced by R-alpha-methylhistamine,H3 receptor,reduced
